Measurements: patent US20090233998A1, “Desmosdumotins, the Method for Preparing the Same and Use as Anti-Tumor or Anti-AIDS Agents” (priority 2004, published 2009)
In brackets after ≈: the same amount, converted by molar mass. Where two headings read alike, the source gives them in different places.

Legend:
[1] = system: KB-VIN (vincristine-resistant KB cells, multi-drug resistant expressing P-glycoprotein); test: in vitro cytotoxicity against human tumor cell replication, KB-VIN; assay type: cell-based; details: for EC50: read-out: ED50 (the source's name)
From the text: (§1) Cancer cell used in cytotoxicity evaluation in vitro were all from human, including lung cancer cell line (A549), breast cancer cell line (MCF-7), ovarian cancer cell line (1A9), epidermoid nasopharyngeal carcinoma cell line (KB), vincristine-resistant cells (KB-VIN), melanoma cancer cell line (SK-MEL-2), ileocecal cancer cell line (HCT-8), renal carcinoma cell line (CAKI), bone cancer cell line (HOS), et al. the anti-cancer ability of the compound represented by half-effective amount (ED50). Control drug was V16 (Etoposide).

[2] = system: KB (human epidermoid carcinoma of the nasopharynx); test: in vitro cytotoxicity against human tumor cell replication, KB; assay type: cell-based; details: for EC50: read-out: ED50 (the source's name)
From the text: as §1

[3] = system: A549 (human lung carcinoma); test: in vitro cytotoxicity against human tumor cell replication, A549; assay type: cell-based; details: for EC50: read-out: ED50 (the source's name)
From the text: as §1

[4] = system: 1A9 (human ovarian carcinoma); test: in vitro cytotoxicity against human tumor cell replication, 1A9; assay type: cell-based; details: for EC50: read-out: ED50 (the source's name)
From the text: as §1

human tumor cell lines = test: in vitro evaluation against a panel of several cancer cell lines; assay type: cell-based
From the text: as §1

[5] = system: KB-VIN (vincristine-resistant KB cells, multi-drug resistant expressing P-glycoprotein); details: background section; cited from earlier work
[6] = system: KB (human epidermoid carcinoma of the nasopharynx); details: parent KB cell line; background section; cited from earlier work
[7] = system: MCF-7 (breast cancer cell line); details: background section; cited from earlier work
Kunming mice = test: in vivo; details: for Death Rate: Kunming, mouse, in vivo, iv, 14 days
Protocol: (§2) The tumor activity […] testing represented by acute toxicity test and tumor-inhibiting testing of mice S180, Method: LD50 of desmosdumotin C to Kunming mice by vein route was obtained by the general acute toxicity test method. Sarcoma S180 was hypodermic inoculated to mice, drug administrated, compared drug group with control group, inhibition rate was calculated, P value show the statistical difference. […].

in vivo = details: both sexes, Kunming, mouse, in vivo, Kunming mice, single vein injection, half male/half female
Protocol: as §2

[8] = system: 1A9 (human ovarian carcinoma); details: IA9 ovarian cancer cell; background section; cited from earlier work
Sarcoma S180 = test: tumor-inhibiting test of mice S180; assay type: in vivo, Kunming mice; details: for Inhibition Rate: S180 tumor growth
Protocol: as §2

[9] = system: MCF-7 (breast cancer cell line); test: in vitro cytotoxicity against human tumor cell replication, MCF-7; assay type: cell-based
From the text: as §1

**Q.** For `COC1=C(C)C(=O)C(=C(O)C=Cc2ccc(O)cc2)C(=O)C1(C)C` [Compound 6, 2-[1′-Hydroxy-3-(4-hydroxyphenyl)-allylidene]-5-methoxy-4,6,6-trimethyl-cyclohex-4-ene-1,3-dione], which EC50 ([1]; Homo sapiens, KBVIN) is on record?
**A.** 11.6 µM

**Q.** And the EC50 ([2]; Homo sapiens)?
**A.** 11.6 µM

**Q.** What about the EC50 ([3]; Homo sapiens) of the same compound?
**A.** 9.48 µM

**Q.** What about the EC50 ([4]; Homo sapiens) of the same compound?
**A.** 8.86 µM

**Q.** What does the source list for `COC1=C(C)C(=O)C(=C(O)C=Cc2ccccc2OC)C(=O)C1(C)C` [Compound 3, 2-[1′-Hydroxy-3-(2-methoxyphenyl)-allylidene]-5-methoxy-4,6,6-trimethylcyclohex-4-ene-1,3-dione]?
**A.** EC50 ([1]; Homo sapiens, KBVIN): 8.45 µM; EC50 ([2]; Homo sapiens): 10.5 µM; activity relative to desmosdumotin C (human tumor cell lines; fold of desmosdumotin C): 4 times; EC50 ([3]; Homo sapiens): 8.74 µM; EC50 ([4]; Homo sapiens): 8.16 µM

**Q.** With `COC1=C(C)C(=O)/C(=C(O)/C=C/c2ccccc2)C(=O)C1(C)C` [Desmosdumotin C, 2-[(1′-hydroxy-2′-ene-3′-phenyl)propenylene]-5-methoxy-4,6,6-trimethyl-1,3-cyclohexene (4,5)-dione] as the compound, how does the ED50 [5] read?
**A.** < 5.6 µg/mL

**Q.** And the ED50 [6]?
**A.** < 6.5 µg/mL

**Q.** What about the ED50 [7] of the same compound?
**A.** < 3.8 µg/mL

**Q.** And the EC50 ([1]; Homo sapiens, KBVIN)?
**A.** 17.9 µM

**Q.** What about the EC50 ([2]; Homo sapiens) of the same compound?
**A.** 20.8 µM

**Q.** And the LD50 (Kunming mice; Kunming mice, single vein injection, half male/half female)?
**A.** 46.0 mg/kg

**Q.** And the “Death Rate” value (Kunming mice; both, 32.8 mg/kg)?
**A.** 0%

**Q.** And the “Death Rate” value (Kunming mice; both, 40.96 mg/kg)?
**A.** 40%

**Q.** And the “Death Rate” value (Kunming mice; both, 51.2 mg/kg)?
**A.** 70%

**Q.** And the “Death Rate” value (Kunming mice; both, 64 mg/kg)?
**A.** 90%

**Q.** What about the “Death Rate” value (Kunming mice; both, 80 mg/kg) of the same compound?
**A.** 100%

**Q.** What about the “Death Rate” value (Kunming mice; female, 32.8 mg/kg) of the same compound?
**A.** 0%

**Q.** What about the “Death Rate” value (Kunming mice; female, 40.96 mg/kg) of the same compound?
**A.** 40%

**Q.** And the “Death Rate” value (Kunming mice; female, 51.2 mg/kg)?
**A.** 80%

**Q.** What about the “Death Rate” value (Kunming mice; female, 64 mg/kg) of the same compound?
**A.** 80%

**Q.** And the “Death Rate” value (Kunming mice; female, 80 mg/kg)?
**A.** 100%

**Q.** And the “Death Rate” value (Kunming mice; male, 32.8 mg/kg)?
**A.** 0%

**Q.** And the “Death Rate” value (Kunming mice; male, 40.96 mg/kg)?
**A.** 40%

**Q.** What about the “Death Rate” value (Kunming mice; male, 51.2 mg/kg) of the same compound?
**A.** 60%

**Q.** What about the “Death Rate” value (Kunming mice; male, 64 mg/kg) of the same compound?
**A.** 100%

**Q.** And the “Death Rate” value (Kunming mice; male, 80 mg/kg)?
**A.** 100%

**Q.** And the LD50 (in vivo; read-out: LD50)?
**A.** > 46 mg/kg

**Q.** And the LD50 (in vivo; read-out: LD50 (95% CL))?
**A.** 39.8 to 53.1 mg/kg

**Q.** What about the ED50 [8] of the same compound?
**A.** < 4.0 µg/mL

**Q.** What about the “Tumor Weight X ± SD” value (Sarcoma S180; S180, 2.5 mg/kg iv × 10qd) of the same compound?
**A.** 1.99 ± 0.18

**Q.** And the “Tumor Weight X ± SD” value (Sarcoma S180; S180, 5 mg/kg iv × 10qd)?
**A.** 1.62 ± 0.22

**Q.** And the “Tumor Weight X ± SD” value (Sarcoma S180; S180, 10 mg/kg iv × 10qd)?
**A.** 1.51 ± 0.21

**Q.** What about the “Inhibition Rate” value (Sarcoma S180; 2.5 mg/kg iv × 10qd) of the same compound?
**A.** 30.18%

**Q.** And the “Inhibition Rate” value (Sarcoma S180; 5 mg/kg iv × 10qd)?
**A.** 43.16%

**Q.** What about the “Inhibition Rate” value (Sarcoma S180; 10 mg/kg iv × 10qd) of the same compound?
**A.** 47.02%

**Q.** What about the EC50 ([4]; Homo sapiens) of the same compound?
**A.** 12.8 µM

**Q.** What about the EC50 ([9]; Homo sapiens, MCF7, read-out: ED50 (the source's name)) of the same compound?
**A.** 12.8 µM

**Q.** With `COC1=C(C)C(=O)C(=C(O)C=Cc2cccc(OC)c2)C(=O)C1(C)C` [Compound 4, 2-[1′-Hydroxy-3-(3-methoxyphenyl)-allylidene]-5-methoxy-4,6,6-trimethyl-cyclohex-4-ene-1,3-dione] as the compound, how does the EC50 ([1]; Homo sapiens, KBVIN) read?
**A.** 6.99 µM

**Q.** And the EC50 ([2]; Homo sapiens)?
**A.** 9.62 µM

**Q.** What about the “anti-tumor activity compared with the leading compound” value (human tumor cell lines; versus desmosdumotin C) of the same compound?
**A.** more significant anti-tumor activity than the leading compound

**Q.** And the EC50 ([3]; Homo sapiens)?
**A.** 8.16 µM

**Q.** And the ED50 [4]?
**A.** 0.7 µg/mL (≈ 2.04 µM)

**Q.** What about the EC50 ([4]; Homo sapiens) of the same compound?
**A.** 8.45 µM

**Q.** With `COC1=C(C)C(=O)C(=C(O)C=Cc2cccs2)C(=O)C1(C)C` [Compound 8, 2-(1′-Hydroxy-3′-thiophen-2″-yl-allylidene)-5-methoxy-4,6,6-trimethyl-cyclohex-4-ene-1,3-dione] as the compound, how does the EC50 [1] read?
**A.** 10.7 µM

**Q.** What about the EC50 [2] of the same compound?
**A.** 17.2 µM

**Q.** And the EC50 [3]?
**A.** 14.1 µM

**Q.** What about the EC50 [4] of the same compound?
**A.** 12.5 µM

**Q.** With `CC1=C(O)C(C)(C)c2oc(-c3ccccc3)cc(=O)c2C1=O` [Desmosdumotin B, 7-hydroxyl-6,8,8-trimethyl-2-phenyl-8H-chromene-4,5-dione] as the compound, how does the ED50 [1] read?
**A.** 2.0 µg/mL (≈ 6.75 µM)

**Q.** And the ED50 [2]?
**A.** >40 µg/mL

**Q.** What about the ED50 [3] of the same compound?
**A.** 28.0 µg/mL (≈ 94.5 µM)

**Q.** And the ED50 [4]?
**A.** 36.0 µg/mL (≈ 121 µM)

**Q.** And the ED50 [9]?
**A.** >5 µg/mL

**Q.** With `COC1=C(C)C(=O)C(=C(O)C=Cc2ccc(OC)cc2)C(=O)C1(C)C` [Compound 5, 2-[1′-Hydroxy-3-(4-methoxyphenyl)-allylidene]-5-methoxy-4,6,6-trimethyl-cyclohex-4-ene-1,3-dione] as the compound, how does the EC50 ([1]; Homo sapiens, KBVIN) read?
**A.** 8.16 µM

**Q.** What about the EC50 ([2]; Homo sapiens) of the same compound?
**A.** 9.62 µM

**Q.** And the EC50 ([3]; Homo sapiens)?
**A.** 6.99 µM

**Q.** What about the EC50 ([4]; Homo sapiens) of the same compound?
**A.** 7.28 µM

**Q.** Which results are given for `CC1=C(O)C2=C(OC(c3ccccc3)CC2=O)C(C)(C)C1=O` (stereo not drawn) [Compound 11, 7-hydroxyl-6,8,8-trimethyl-2-phenyl-2,3-dihydrogen-8H-chromene-4,5-dione]?
**A.** ED50 [1]: 7.5 µg/mL (≈ 25.1 µM); ED50 [2]: 10.5 µg/mL (≈ 35.2 µM); ED50 [3]: 13.5 µg/mL (≈ 45.3 µM); ED50 [4]: 8.0 µg/mL (≈ 26.8 µM); ED50 [9]: >5 µg/mL

**Q.** Which results are given for `COC1=C(C)C(=O)C(=C(O)C=Cc2ccccc2)C(=O)C1(C)C` [Compound 13, 2-[(1′-hydroxy-2′-ene-3′-phenyl)propenylene)-5-methoxy-4,6,6-trimethyl-1,3-cyclohexene (4,5)-diketone]?
**A.** ED50 [1]: 2.9 µg/mL (≈ 9.28 µM); ED50 [2]: 4.1 µg/mL (≈ 13.1 µM); ED50 [3]: > 5 µg/mL; ED50 [4]: 3.63 µg/mL (≈ 11.6 µM); ED50 [9]: > 5 µg/mL

**Q.** Which results are given for `COC1=C(C)C(=O)C(=C(O)C=Cc2ccco2)C(=O)C1(C)C` [Compound 7, 2-(3′-Furan-2″-yl-1′-hydroxy-allylidene)-5-methoxy-4,6,6-trimethyl-cyclohex-4-ene-1,3-dione]?
**A.** EC50 [1]: 29 µM; EC50 [2]: 32.7 µM; EC50 [3]: 33 µM; EC50 [4]: 26.1 µM

**Q.** With `COC1=C(C)C(=O)C(=C(O)C=Cc2nccs2)C(=O)C1(C)C` [Compound 9] as the compound, how does the EC50 [1] read?
**A.** 9.37 µM

**Q.** What about the EC50 [2] of the same compound?
**A.** 13.4 µM

**Q.** What about the EC50 [3] of the same compound?
**A.** 10.9 µM

**Q.** What about the EC50 [4] of the same compound?
**A.** 10.9 µM

**Q.** What does the source list for `COC1=CC(=O)c2c(oc(-c3ccccc3)cc2=O)C1(C)C` [Compound 14, 7-methoxy-8,8-dimethyl-2-phenyl-8H-chromene-4,5-dione]?
**A.** ED50 [2]: 1.8 µg/mL (≈ 6.07 µM); ED50 [3]: 2.0 µg/mL (≈ 6.75 µM); ED50 [4]: 0.7 µg/mL (≈ 2.36 µM)

**Q.** For `COC1=C(C)C(=O)C(=C(O)C=Cc2ccc(Br)cc2)C(=O)C1(C)C` [Compound 2, 2-[1′-Hydroxy-3-(4-bromophenyl)-allylidene]-5-methoxy-4,6,6-trimethylcyclohex-4-ene-1,3-dione], which EC50 ([1]; Homo sapiens, KBVIN) is on record?
**A.** 4.84 µM

**Q.** What about the EC50 ([2]; Homo sapiens) of the same compound?
**A.** 4.33 µM

**Q.** And the EC50 ([3]; Homo sapiens)?
**A.** 3.57 µM

**Q.** What about the EC50 ([4]; Homo sapiens) of the same compound?
**A.** 2.8 µM

**Q.** With `CC1=C(O)C(C)(C)C(=O)/C(=C(O)\C=C\c2ccccc2)C1=O` [Compound 12, 2-[(1′-hydroxy-2′-ene-3′-phenyl)propenylene]-5-hydroxy-4,6,6-trimethyl-1,3-cyclohexene(4,5)-dione] as the compound, how does the ED50 [1] read?
**A.** 6.5 µg/mL (≈ 21.8 µM)

**Q.** And the ED50 [2]?
**A.** 10.5 µg/mL (≈ 35.2 µM)

**Q.** What about the ED50 [3] of the same compound?
**A.** 9.0 µg/mL (≈ 30.2 µM)

**Q.** What about the ED50 [4] of the same compound?
**A.** 8.0 µg/mL (≈ 26.8 µM)

**Q.** What about the ED50 [9] of the same compound?
**A.** > 5 µg/mL
